Assay results: article PMC8838415, “Discovery of Novel Pleuromutilin Derivatives as Potent Antibacterial Agents for the Treatment of MRSA Infection” (Molecules, 2022)
pKd: −log10 of the molar value. In brackets after ≈: the same amount, converted by molar mass.

Key:
[1] = system: 50S ribosome; assay: SPR interaction and affinity analysis; assay type: binding, S. aureus ATCC 43300; details: 4 °C; for Avg ka / Avg kd: 1:1 Langmuir binding; for pKd: KD = Kd/Ka
Protocol: S. aureus ATCC 43300 was used to prepare the 50S ribosomal subunit the same way as described previously. Cells were grown overnight in Brain Heart Infusion broth at 37 °C and harvested for 1.5 h at an OD600. Cells were washed with 10 mM Tris-HCl twice at pH = 7.5, and resuspended in 5 mL buffer A (20 mM HEPES-HCl pH = 7.5, 21 mM Mg(OAc)2, 100 mM NH4Cl, 1 mM DTT, 1 mM EDTA). Cells were broken by an ultrasound crusher. The lysate was centrifuged for 90 min at 20,000× g to clear cell debris.
The solution was layered on a sucrose cushion of 15 mL (10 mM Hepes-KOH pH 7.5, 25 mM Mg(OAc)2, 500 mM KCl, […], 1 mM DTT, 0.5 mM EDTA). Centrifugation was carried out for 15 h at 45,000 rpm using an ultracentrifuge Beckman (Beckman Coulter, Shanghai, China), Type 70Ti rotor. The crude ribosome pellet was resuspended in buffer E (10 mM Hepes-KOH pH 7.5, 10 mM Mg(OAc)2, 100 mM KCl, 1 mM DTT, 0.5 mM EDTA), then layered on 9 mL of 7–30% sucrose gradient and centrifuged in an ultracentrifuge Beckman, type SW40Ti rotor at 17,100 rpm for 15 h. The gradient was analyzed on the AKTA explorer system (Amersham, UK). The fractions corresponding to the 50S ribosomal subunit were collected and further subjected to precipitation by PEG 20,000. The 50S ribosomal subunit pellet was gently dissolved in 200 µL of storage buffer (10 mM HEPES-HCl pH = 7.5, 10 mM Mg(OAc)2, 15 mM KCl, 60 mM NH4Cl, 1 mM DTT) and stored at −80 °C.
SPR affinity analysis was performed on the bScreen LB 991 Label-free Microarray System (Berthold Technologies, Black Forest, Germany) at 4 °C and Biodot AD-1520 Array Printer (BIODOT Inc., Irvine, CA, USA) with a Photo-cross-linker SensorCHIP™. Concentrations of each compound were diluted to 100 μM with DMSO as the printing working solution for immobilization. A Biodot AD-1520 Array Printer (BIODOT Inc., CA, USA) was used to control the photo-cross-linker sensor chip and print samples. Each sample was printed four times. In order to check the chip quality and check whether the detection system works, DMSO was used as a system-negative control and rapamycin as a positive control. All positive control dots were divided into four groups and printed on the four corners of the sensor chip. The sensor chip was dried in vacuum after the array print and quickly transferred to a spectra radiator for a photo cross-linking reaction. The sensor chip was washed with C2H5OH, DMF and H2O in turn and evaporated in a N2 atmosphere for 15 min. Then, the Flowcell Cover were assembled.
The 50S ribosome was diluted separately to 200 nM, 400 nM, 800 nM, 1600 nM and 3200 nM with PBST (pH = 7.4, 0.1% Tween 20). Different concentrations of ribosome solutions were injected at a flow rate of 0.5 μL⋅s^−1 for 600 s at the associating stage at 4 °C, followed by PBST at a flow rate of 0.5⋅μL·s^−1 for 360 s at each dissociating stage. Then, the surface was regenerated with Glycine-HCl (pH = 2.0) at a flow rate of 2⋅μL·s^−1 for 300 s.
The raw data of the binding process of compounds and the 50S ribosome were recorded in real time. We compared the response unit (RU) of surface resonance to determine the different binding affinity between each sample dot. The process and analysis of association rate constants (Ka) and dissociation rate constants (Kd) and the equilibrium dissociation constant (KD, Kd/Ka) were performed using the data analysis software of the bScreen LB 991 Label-free Microarray System according to a single-site binding model (1:1 Langmuir binding) with mass transfer limitations for binding kinetics determination.

[2] = system: S. aureus (144); assay: MIC and MBC, broth dilution, S. aureus 144; assay type: cell-based; details: Staphylococcus aureus; S. aureus 144 (clinical strain)
Protocol: (§1) The synthesized pleuromutilin derivatives 8–30 were tested against four Gram-positive bacteria (MRSA ATCC 43300, S. aureus ATCC 29213 and two clinical strains of S. aureus (AD3 and 144) isolated from Guangdong Province). Tiamulin was used as the positive control in this experiment.
(§2) MIC values were tested following our previous work. The derivatives were dissolved in an aqueous solution of 2.5% tween-80 and 2.5% DMSO to make a solution with a concentration of 1000 µg/mL. The solution was diluted 12 times with MH broth to give a concentration range of 32–0.01 µg/mL. The bacteria (5 × 10^5 CFU/mL) were added in each well. For each compound concentration, three parallel experiments were set. The 96-well plate was incubated for 22–26 h at 37 °C. The MIC value was recorded as the minimal concentration that inhibits the visible growth of tested bacteria completely.
(§3) The MBC of these pleuromutilin derivatives were tested according to a previously reference. […] Then, the values of MBC were determined by laying 100 μL aliquots from the wells onto the MH agar plates without visible growth. The MH agar plate was cultured for a further 22–26 h at 37 °C.

[3] = system: S. aureus (ATCC 29213); assay: MIC and MBC, broth dilution, S. aureus ATCC 29213; assay type: cell-based; details: Staphylococcus aureus, ATCC29213
Protocol: as §1, §2, §3

[4] = system: S. aureus (AD3); assay: MIC and MBC, broth dilution, S. aureus AD3; assay type: cell-based; details: Staphylococcus aureus; S. aureus AD3 (clinical strain)
Protocol: as §1, §2, §3

[5] = system: methicillin-resistant S. aureus (ATCC 43300); assay: MIC and MBC, broth dilution, MRSA ATCC 43300; assay type: cell-based; details: Staphylococcus aureus
Protocol: as §1, §2, §3

Molecule: penicillin [reference compound]
- Avg ka [1]: 2.10 M⁻¹ s⁻¹
- Avg kd [1]: 0.515 s⁻¹

Molecule: C=C[C@]1(C)C[C@@H](OC(=O)CNCCSC)[C@]2(C)[C@H](C)CC[C@]3(CCC(=O)[C@H]32)[C@@H](C)[C@@H]1O [Compound 26, 22-(2-(Methylthio)ethylamineyl)-22-deoxypleuromutilin]
- MBC [2]: 4 µg/mL (≈ 8.86 µM)
- MIC [2]: 2 µg/mL (≈ 4.43 µM)
- Avg ka [1]: 1.26 M⁻¹ s⁻¹
- Avg kd [1]: 0.779 s⁻¹
- melting point: 153 to 155 °C
- MBC [3]: 2 µg/mL (≈ 4.43 µM)
- MIC [3]: 2 µg/mL (≈ 4.43 µM)
- MBC [4]: 4 µg/mL (≈ 8.86 µM)
- MIC [4]: 1 µg/mL (≈ 2.21 µM)
- MBC [5]: 1 µg/mL (≈ 2.21 µM)
- MIC [5]: 1 µg/mL (≈ 2.21 µM)

Molecule: C=C[C@]1(C)C[C@@H](OC(=O)CNCCCCCCCCCCCCCCCC)[C@]2(C)[C@H](C)CC[C@]3(CCC(=O)[C@H]32)[C@@H](C)[C@@H]1O [Compound 24, 22-Hexadecylamineyl-22-deoxypleuromutilin]
- MBC [2]: > 32 µg/mL
- MIC [2]: 32 µg/mL (≈ 53.2 µM)
- Avg kd [1]: 0.0375 s⁻¹
- pKd [1]: 3.00
- melting point: 76 to 79 °C
- MBC [3]: > 32 µg/mL
- MIC [3]: 32 µg/mL (≈ 53.2 µM)
- MBC [4]: > 32 µg/mL
- MIC [4]: > 32 µg/mL
- MBC [5]: > 32 µg/mL
- MIC [5]: 32 µg/mL (≈ 53.2 µM)

Molecule: C=C[C@]1(C)C[C@@H](OC(=O)CNCc2ccccc2F)[C@]2(C)[C@H](C)CC[C@]3(CCC(=O)[C@H]32)[C@@H](C)[C@@H]1O [Compound 14, 22-(2-Fluorobenzylamineyl)-22-deoxypleuromutilin]
- MBC [2]: 8 µg/mL (≈ 16.5 µM)
- MIC [2]: 4 µg/mL (≈ 8.24 µM)
- Avg ka [1]: 153 M⁻¹ s⁻¹
- Avg kd [1]: 0.065 s⁻¹
- pKd [1]: 3.37
- melting point: 163 to 164 °C
- MBC [3]: 8 µg/mL (≈ 16.5 µM)
- MIC [3]: 4 µg/mL (≈ 8.24 µM)
- MBC [4]: 8 µg/mL (≈ 16.5 µM)
- MIC [4]: 2 µg/mL (≈ 4.12 µM)
- MBC [5]: 2 µg/mL (≈ 4.12 µM)
- MIC [5]: 1 µg/mL (≈ 2.06 µM)

Molecule: C=C[C@]1(C)C[C@@H](OC(=O)CN2CCSCC2)[C@]2(C)[C@H](C)CC[C@]3(CCC(=O)[C@H]32)[C@@H](C)[C@@H]1O [Compound 30, 22-Thiomorpholine-22-deoxypleuromutilin]
- MBC [2]: 4 µg/mL (≈ 8.63 µM)
- MIC [2]: 2 µg/mL (≈ 4.31 µM)
- Avg kd [1]: 0.00021 s⁻¹
- pKd [1]: 5.11
- melting point: 82 to 83 °C
- MBC [3]: 2 µg/mL (≈ 4.31 µM)
- MIC [3]: 1 µg/mL (≈ 2.16 µM)
- MBC [4]: 4 µg/mL (≈ 8.63 µM)
- MIC [4]: 1 µg/mL (≈ 2.16 µM)
- MBC [5]: 2 µg/mL (≈ 4.31 µM)
- MIC [5]: 1 µg/mL (≈ 2.16 µM)

Molecule: C=C[C@]1(C)C[C@@H](OC(=O)CNc2cccc(Br)c2)[C@]2(C)[C@H](C)CC[C@]3(CCC(=O)[C@H]32)[C@@H](C)[C@@H]1O [Compound 12, 22-(3-Bromoanilineyl)-22-deoxypleuromutilin]
- MBC [2]: 2 µg/mL (≈ 3.76 µM)
- MIC [2]: 1 µg/mL (≈ 1.88 µM)
- Avg kd [1]: 6.25e-05 s⁻¹
- pKd [1]: 5.82
- melting point: 161 to 163 °C
- MBC [3]: 0.5 µg/mL (≈ 0.939 µM)
- MIC [3]: 0.25 µg/mL (≈ 0.469 µM)
- MBC [4]: 1 µg/mL (≈ 1.88 µM)
- MIC [4]: 0.25 µg/mL (≈ 0.469 µM)
- MBC [5]: 0.25 µg/mL (≈ 0.469 µM)
- MIC [5]: 0.12 µg/mL (≈ 0.225 µM)

Molecule: C=C[C@]1(C)C[C@@H](OC(=O)CNCc2cccc(F)c2)[C@]2(C)[C@H](C)CC[C@]3(CCC(=O)[C@H]32)[C@@H](C)[C@@H]1O [Compound 15, 22-(3-Fluorobenzylamineyl)-22-deoxypleuromutilin]
- MBC [2]: 16 µg/mL (≈ 32.9 µM)
- MIC [2]: 8 µg/mL (≈ 16.5 µM)
- Avg ka [1]: 1960 M⁻¹ s⁻¹
- Avg kd [1]: 0.00432 s⁻¹
- pKd [1]: 5.66
- melting point: 143 to 144 °C
- MBC [3]: 8 µg/mL (≈ 16.5 µM)
- MIC [3]: 4 µg/mL (≈ 8.24 µM)
- MBC [4]: 8 µg/mL (≈ 16.5 µM)
- MIC [4]: 2 µg/mL (≈ 4.12 µM)
- MBC [5]: 2 µg/mL (≈ 4.12 µM)
- MIC [5]: 1 µg/mL (≈ 2.06 µM)

Molecule: C=C[C@]1(C)C[C@@H](OC(=O)CNCCc2ccccc2)[C@]2(C)[C@H](C)CC[C@]3(CCC(=O)[C@H]32)[C@@H](C)[C@@H]1O [Compound 17, 22-(2-PhenylethylaMineyl)-22-deoxypleuromutilin]
- MBC [2]: 4 µg/mL (≈ 8.3 µM)
- MIC [2]: 4 µg/mL (≈ 8.3 µM)
- Avg ka [1]: 2.05 M⁻¹ s⁻¹
- Avg kd [1]: 0.00963 s⁻¹
- pKd [1]: 2.33
- melting point: 73 to 75 °C
- MBC [3]: 8 µg/mL (≈ 16.6 µM)
- MIC [3]: 2 µg/mL (≈ 4.15 µM)
- MBC [4]: 8 µg/mL (≈ 16.6 µM)
- MIC [4]: 2 µg/mL (≈ 4.15 µM)
- MBC [5]: 1 µg/mL (≈ 2.08 µM)
- MIC [5]: 1 µg/mL (≈ 2.08 µM)

Molecule: C=C[C@]1(C)C[C@@H](OC(=O)CNCCCCCCCCCCCC)[C@]2(C)[C@H](C)CC[C@]3(CCC(=O)[C@H]32)[C@@H](C)[C@@H]1O [Compound 23, 22-Dodecylamineyl-22-deoxypleuromutilin]
- MBC [2]: > 32 µg/mL
- MIC [2]: 32 µg/mL (≈ 58.6 µM)
- Avg ka [1]: 24100 M⁻¹ s⁻¹
- Avg kd [1]: 0.0011 s⁻¹
- pKd [1]: 7.34
- melting point: 75 to 77 °C
- MBC [3]: > 32 µg/mL
- MIC [3]: 32 µg/mL (≈ 58.6 µM)
- MBC [4]: > 32 µg/mL
- MIC [4]: 32 µg/mL (≈ 58.6 µM)
- MBC [5]: 32 µg/mL (≈ 58.6 µM)
- MIC [5]: 32 µg/mL (≈ 58.6 µM)

Molecule: C=C[C@]1(C)C[C@@H](OC(=O)CNc2cccc(F)c2)[C@]2(C)[C@H](C)CC[C@]3(CCC(=O)[C@H]32)[C@@H](C)[C@@H]1O [Compound 8]
- MBC [2]: 0.5 µg/mL (≈ 1.06 µM)
- MIC [2]: 0.25 µg/mL (≈ 0.53 µM)
- MBC [3]: 0.25 µg/mL (≈ 0.53 µM)
- MIC [3]: 0.12 µg/mL (≈ 0.254 µM)
- MBC [4]: 0.5 µg/mL (≈ 1.06 µM)
- MIC [4]: 0.12 µg/mL (≈ 0.254 µM)
- MBC [5]: 0.12 µg/mL (≈ 0.254 µM)
- MIC [5]: 0.03 µg/mL (≈ 0.0636 µM)
